From the supplement of paper PMC13380429

Tests used:
Conditions in all cases: 72 h
Calu-3 [1] = experiment: drug sensitivity score (DSS) for viability; higher = more toxic; extreme values may be limits of the assay
Vero E6 [2] = experiment: as above
Caco-2 [3] = experiment: as above
HepG2 [4] = experiment: as above
Calu-3 [5] = experiment: cell viability relative to DMSO; higher = less toxic
Vero E6 [6] = experiment: as above
Caco-2 [7] = experiment: as above
HepG2 [8] = experiment: as above
Calu-3 [9] = experiment: relative viability EC50 (midpoint between 100% and the lowest measured viability); higher = less toxic
Vero E6 [10] = experiment: as above
Caco-2 [11] = experiment: as above
HepG2 [12] = experiment: as above
U2OS [13] = experiment: drug sensitivity score (DSS) for viability; higher = more toxic; extreme values may be limits of the assay
U2OS [14] = experiment: cell viability relative to DMSO; higher = less toxic
U2OS [15] = experiment: relative viability EC50 (midpoint between 100% and the lowest measured viability); higher = less toxic

SMILES	drug sensitivity score (Calu-3 [1])	drug sensitivity score (Vero E6 [2])	drug sensitivity score (Caco-2 [3])	drug sensitivity score (HepG2 [4])	cell viability (Calu-3 [5]; 1 nM) [%]	cell viability (Calu-3 [5]; 10 nM) [%]	cell viability (Calu-3 [5]; 100 nM) [%]	cell viability (Calu-3 [5]; 1000 nM) [%]	cell viability (Calu-3 [5]; 10000 nM) [%]	cell viability (Vero E6 [6]; 1 nM) [%]	cell viability (Vero E6 [6]; 10 nM) [%]	cell viability (Vero E6 [6]; 100 nM) [%]	cell viability (Vero E6 [6]; 1000 nM) [%]	cell viability (Vero E6 [6]; 10000 nM) [%]	cell viability (Caco-2 [7]; 1 nM) [%]	cell viability (Caco-2 [7]; 10 nM) [%]	cell viability (Caco-2 [7]; 100 nM) [%]	cell viability (Caco-2 [7]; 1000 nM) [%]	cell viability (Caco-2 [7]; 10000 nM) [%]	cell viability (HepG2 [8]; 1 nM) [%]	cell viability (HepG2 [8]; 10 nM) [%]	cell viability (HepG2 [8]; 100 nM) [%]	cell viability (HepG2 [8]; 1000 nM) [%]	cell viability (HepG2 [8]; 10000 nM) [%]	relative viability EC50 (Calu-3 [9]) [µM]	relative viability EC50 (Vero E6 [10]) [µM]	relative viability EC50 (Caco-2 [11]) [µM]	relative viability EC50 (HepG2 [12]) [µM]	drug sensitivity score (U2OS [13])	cell viability (U2OS [14]; 1 nM) [%]	cell viability (U2OS [14]; 10 nM) [%]	cell viability (U2OS [14]; 100 nM) [%]	cell viability (U2OS [14]; 1000 nM) [%]	cell viability (U2OS [14]; 10000 nM) [%]	relative viability EC50 (U2OS [15]) [µM]
COc1ccc(CC(=O)NC(/N=C(\NC#N)Nc2cccc3ncccc23)C(C)(C)C)cc1OC (configuration not stated)	0	0	0	0	113	96.5	95.6	109	103	103	97	91.1	96.9	99.8	101	97.8	94.1	101	99.7	107	95.7	93.8	97.5	106	> 10	> 10	> 10	> 10							
C[C@@H]1COC(Nc2ccc3ncnc(Nc4ccc(OCc5nccs5)c(Cl)c4)c3c2)=N1	13.2	5.6	3.4	0	103	107	81.8	41.3	36.1	107	99.5	94	70.7	67	95.7	104	97.2	81.6	67.7	100	100	94.8	92.3	98.8	0.184			> 10	0	97.8	96.7	98.9	93.3	90	> 10
Cc1c(C2CCN(CCc3ccccc3)CC2)noc1-c1ccc(Cl)cc1	0.3	0	1.5	1.9	99.9	104	101	108	80.9	105	99.4	103	98.3	90.3	103	106	99.9	98.8	68.6	102	107	96.5	95.8	71.9	> 10	> 10			0	102	98.7	101	97.3	96.6	> 10
Cc1cc(CCC[C@H](CC(=O)NO)C(=O)N[C@H](C(=O)N[C@H](C)c2ccccc2)C(C)(C)C)ccc1-c1ccccc1	1.1	1.9	2.6	3.1	101	90.9	91.8	94.8	77.5	103	104	99.9	97	67.5	105	95.2	110	99.4	51.4	110	116	99.6	106	35.1	> 10			3.6	2.9	99.1	102	97.3	99.6	46.7	3.12
